In general, melting point refers to the temperature, or range, at which the solid turns liquid. A word on the inhibition: it is the drop in the measured response relative to a control, in per cent. For orientation: IC50 means the concentration at which inhibition is half-maximal. A low value points to inhibition by little substance.

The target in one data set is T1, Human 5-lipoxygenase (Homo sapiens, UniProt P09917).
T1 construct: purchased Cayman 60402; host or cells: insect cells
T1 sequence (P09917 1-674): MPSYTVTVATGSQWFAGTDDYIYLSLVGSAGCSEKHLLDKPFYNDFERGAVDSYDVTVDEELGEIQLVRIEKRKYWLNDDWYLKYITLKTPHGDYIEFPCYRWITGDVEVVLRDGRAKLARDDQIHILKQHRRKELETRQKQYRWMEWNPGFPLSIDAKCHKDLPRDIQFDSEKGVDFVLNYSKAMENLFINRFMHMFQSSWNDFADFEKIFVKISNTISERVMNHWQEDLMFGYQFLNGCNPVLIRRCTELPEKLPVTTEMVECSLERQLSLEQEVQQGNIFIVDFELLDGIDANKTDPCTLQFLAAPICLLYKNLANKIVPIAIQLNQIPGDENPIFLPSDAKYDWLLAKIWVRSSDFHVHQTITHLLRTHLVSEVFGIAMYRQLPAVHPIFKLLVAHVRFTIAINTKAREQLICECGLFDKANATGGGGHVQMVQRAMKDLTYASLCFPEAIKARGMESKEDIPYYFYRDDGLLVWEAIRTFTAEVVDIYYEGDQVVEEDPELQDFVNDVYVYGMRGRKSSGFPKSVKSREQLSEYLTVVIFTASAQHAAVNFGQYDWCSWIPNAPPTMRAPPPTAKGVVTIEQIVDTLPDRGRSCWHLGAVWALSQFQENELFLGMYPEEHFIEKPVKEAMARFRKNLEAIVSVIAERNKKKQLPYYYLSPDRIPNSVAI
The experiment in a line: Activity of compounds against 5-LO enzyme (LTB4 measurement and/or fluorescence method). Format: biochemical. To be noted: for inhibition at 10 µM: 5-LO, single concentration of 10 uM in duplicate; for IC50: 6 or 11 point dose response in duplicate. An outline of the steps:
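Two read-outs: LTB4 measured by EIA and/or LC/MS/MS with LTB4-d4 standard after 15 min RT compound preincubation with insect-cell 5-LO and a 5 min 37 °C reaction on 3 uM arachidonic acid (0.1 mM ATP, pH 7.4). The room-temperature fluorescence format used 20 uM H2DCFDA, 100 uM ATP, 3 uM arachidonic acid, 5 min; IC50 from 6/11-point curves.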

The molecule `CCc1nc2cc(Cl)ccn2c1C(=O)NCc1ccc(N2CCC(Oc3ccc(F)cc3)CC2)cc1` [compound 70, 7-Chloro-2-ethyl-N-(4-(4-(4-fluorophenoxy)piperidin-1-yl)benzyl)imidazo[1,2-a]pyridine-3-carboxamide] came in with a melting point of 138 to 139 °C. Further, on Human 5-lipoxygenase, the inhibition at 10 µM is above 69% and the IC50 is 1 to 20 µM.

The molecule `CCc1nc2cc(Cl)ccn2c1C(=O)NCc1ccc(N2CCOCC2)cc1` [compound 93, 7-Chloro-2-ethyl-N-(4-morpholinobenzyl)imidazo[1,2-a]pyridine-3-carboxamide] displayed a melting point of 195 °C. Also, the inhibition at 10 µM on Human 5-lipoxygenase is below 40%.

Molecule `CCc1nc2cc(C)ccn2c1C(=O)NCc1ccc(N2CCOCC2)cc1` [compound 94, 2-Ethyl-7-methyl-N-(4-morpholinobenzyl)imidazo[1,2-a]pyridine-3-carboxamide] yielded a melting point of 190 °C. Besides, at Human 5-lipoxygenase, the inhibition at 10 µM is below 40%.

In turn, `CCc1nc2cc(C)ccn2c1C(=O)NCc1ccc2ccccc2c1` [compound 95, 2-Ethyl-7-methyl-N-(naphthalen-2-ylmethyl)imidazo[1,2-a]pyridine-3-carboxamide] showed a melting point of 192 °C. The inhibition at 10 µM on Human 5-lipoxygenase lay in the range of 40 to 69%.

The molecule `CCc1nc2ccc(Cl)cn2c1CNCCc1cccnc1` [compound 343, N-((6-chloro-2-ethylimidazo[1,2-a]pyridin-3-yl)methyl)-2-(pyridin-3-yl)ethanamine] gave an inhibition at 10 µM on Human 5-lipoxygenase below 40%.

Take `CCc1nc2ccc(Cl)cn2c1CNCCc1ccncc1` [compound 344, N-((6-chloro-2-ethylimidazo[1,2-a]pyridin-3-yl)methyl)-2-(pyridin-4-yl)ethanamine]: the inhibition at 10 µM on Human 5-lipoxygenase was below 40%.

For `CCc1nc2ccc(Cl)cn2c1CNC1CCN(Cc2ccccc2)C1` (centres unmarked) [compound 345, 1-Benzyl-N-((6-chloro-2-ethylimidazo[1,2-a]pyridin-3-yl)methyl)pyrrolidin-3-amine], at Human 5-lipoxygenase, the inhibition at 10 µM was below 40%.

The molecule `CCc1nc2ccc(Cl)cn2c1CNCc1ccc(N2CCC3(CC2)OCCO3)cc1` [compound 346, N-(4-(1,4-dioxa-8-azaspiro[4.5]decan-8-yl)benzyl)-1-(6-chloro-2-ethylimidazo[1,2-a]pyridin-3-yl)methanamine] yielded an inhibition at 10 µM on Human 5-lipoxygenase below 40%.

As for `CCc1nc2ccc(Cl)cn2c1CN1CCC(OCc2ccc(OC(F)(F)F)cc2)CC1` [compound 347, 6-chloro-2-ethyl-3-((4-((4-(trifluoromethoxy)benzyl)oxy)piperidin-1-yl)methyl)imidazo[1,2-a]pyridine], at Human 5-lipoxygenase, the inhibition at 10 µM was above 69%.

The molecule `CCc1nc2cc(Cl)ccn2c1-c1nnc(Cc2ccc(F)cc2)o1` [compound 348, 2-(7-chloro-2-ethylimidazo[1,2-a]pyridin-3-yl)-5-(4-fluorobenzyl)-1,3,4-oxadiazole] gave an inhibition at 10 µM against Human 5-lipoxygenase below 40%.

In the case of `CCc1nc2ccc(Cl)cn2c1CN1CCC(CCc2ccc(F)cc2)CC1` [compound 349, 6-chloro-2-ethyl-3-((4-(4-fluorophenethyl)piperidin-1-yl)methyl)imidazo[1,2-a]pyridine], the inhibition at 10 µM at Human 5-lipoxygenase is 40 to 69%.

The molecule `CCc1nc2ccc(Cl)cn2c1C(=O)N1CCC(Cn2cc(C(O)(CC)C(F)(F)F)nn2)CC1` (centres unmarked) [compound 350, (6-chloro-2-ethylimidazo[1,2-a]pyridin-3-yl)(4-((4-(1,1,1-trifluoro-2-hydroxybutan-2-yl)-1H-1,2,3-triazol-1-yl)methyl)piperidin-1-yl)methanone] displayed an inhibition at 10 µM against Human 5-lipoxygenase below 40%.

As to `CCc1nc2ccccn2c1CN1CCC(Cn2cc(C(O)(CC)C(F)(F)F)nn2)CC1` (centres unmarked) [compound 351, 2-(1-((1-((2-ethylimidazo[1,2-a]pyridin-3-yl)methyl)piperidin-4-yl)methyl)-1H-1,2,3-triazol-4-yl)-1,1,1-trifluorobutan-2-ol], on Human 5-lipoxygenase, the inhibition at 10 µM was below 40%.

Molecule `CCc1nc2ccccn2c1C(=O)NCc1ccc(CC2CCOCC2)cc1` [compound 357, 2-ethyl-N-(4-((tetrahydro-2H-pyran-4-yl)methyl)benzyl)imidazo[1,2-a]pyridine-3-carboxamide] had an inhibition at 10 µM against Human 5-lipoxygenase below 40%.

Molecule `CCc1nc2ccc(Cl)cn2c1C(=O)NCc1nc2ccc(Cl)cc2[nH]1` [compound 365, 6-chloro-N-((6-chloro-1H-benzo[d]imidazol-2-yl)methyl)-2-ethylimidazo[1,2-a]pyridine-3-carboxamide] yielded an inhibition at 10 µM against Human 5-lipoxygenase below 40%.

Take `CCc1nc2cc(Cl)ccn2c1CNc1ccc(NC2CCN(c3ccc(F)cc3)CC2)cc1` [compound 375, N1-((7-chloro-2-ethylimidazo[1,2-a]pyridin-3-yl)methyl)-N4-(1-(4-fluorophenyl)piperidin-4-yl)benzene-1,4-diamine]: the inhibition at 10 µM at Human 5-lipoxygenase was above 69%.

At Human 5-lipoxygenase, `CCc1nc2cc(Cl)ccn2c1CNc1ccc(N2CCC(c3ccc(OC(F)(F)F)cc3)CC2)cc1` [compound 376, N-((7-chloro-2-ethylimidazo[1,2-a]pyridin-3-yl)methyl)-4-(4-(4-(trifluoromethoxy)phenyl)piperidin-1-yl)aniline] came in with an inhibition at 10 µM above 69%.

The molecule `CCc1nc2cc(Cl)ccn2c1C(=O)N1CCC(Oc2ccc(OC(F)(F)F)cc2)CC1` [compound 380, (7-Chloro-2-ethylimidazo[1,2-a]pyridin-3-yl)(4-(4-(trifluoromethoxy)phenoxy)piperidin-1-yl)methanone] gave an IC50 against Human 5-lipoxygenase below 1 µM.

At Human 5-lipoxygenase, `CCc1nc2ccc(Cl)cn2c1CNCc1ccc(N2CCN(c3ccc(F)cc3)CC2)cc1` [compound 381, 1-(6-chloro-2-ethylimidazo[1,2-a]pyridin-3-yl)-N-(4-(4-(4-fluorophenyl)piperazin-1-yl)benzyl)methanamine] yielded an IC50 of 1 to 20 µM.

Turning to `CCc1nc2ccc(Cl)cn2c1C(=O)N1CCCC(OCc2ccc(OC(F)(F)F)cc2)C1` (centres unmarked) [compound 382, (6-chloro-2-ethylimidazo[1,2-a]pyridin-3-yl)(3-(4-(trifluoromethoxy)benzyloxy)-piperidin-1-yl)methanone], the IC50 at Human 5-lipoxygenase fell in the range of 1 to 20 µM.

As to `CCc1nc2ncccn2c1C(=O)N1CCC(OCc2ccc(OC(F)(F)F)cc2)CC1` [compound 385, (2-Ethylimidazo[1,2-a]pyrimidin-3-yl)(4-((4-(trifluoromethoxy)benzyl)oxy)piperidin-1-yl)methanone], the IC50 against Human 5-lipoxygenase was above 20 µM.

`CCc1nc2cccnn2c1C(=O)N1CCC(OCc2ccc(OC(F)(F)F)cc2)CC1` [compound 387, (2-Ethylimidazo[1,2-b]pyridazin-3-yl)(4-((4-(trifluoromethoxy)benzyl)oxy)piperidin-1-yl)methanone] displayed an IC50 at Human 5-lipoxygenase above 20 µM.

As to `CCc1nc2cccnn2c1C(=O)NCc1ccc(-c2ccc(Cl)cc2)cc1` [compound 388, N-((4′-Chloro-[1,1′-biphenyl]-4-yl)methyl)-2-ethylimidazo[1,2-b]pyridazine-3-carboxamide], the IC50 on Human 5-lipoxygenase is above 20 µM.

For the molecule `CCc1nc2cnccn2c1C(=O)N1CCC(OCc2ccc(OC(F)(F)F)cc2)CC1` [compound 389, (2-Ethylimidazo[1,2-a]pyrazin-3-yl)(4-((4-(trifluoromethoxy)benzyl)oxy)piperidin-1-yl)methanone], the IC50 on Human 5-lipoxygenase was above 20 µM.

As to `CCc1nc2ccc(Cl)cn2c1C(=O)N1CC[C@H](OCc2ccc(OC(F)(F)F)cc2)C1` [compound 390, (S)-(6-chloro-2-ethylimidazo[1,2-a]pyridin-3-yl)(3-(4-(trifluoromethoxy)benzyloxy)-pyrrolidin-1-yl)methanone], the IC50 on Human 5-lipoxygenase lay within 1 to 20 µM.

`CCc1nc2ccc(Cl)cn2c1C(=O)N1CC[C@@H](OCc2ccc(OC(F)(F)F)cc2)C1` [compound 391, (R)-(6-chloro-2-ethylimidazo[1,2-a]pyridin-3-yl)(3-(4-(trifluoromethoxy)benzyloxy)-pyrrolidin-1-yl)methanone] had an IC50 against Human 5-lipoxygenase of 1 to 20 µM.

`CCc1nc2cc(Cl)ccn2c1C(=O)N1CCC(OCc2ccc(OC(F)(F)F)cc2)CC1` [compound 393, (7-chloro-2-ethylimidazo[1,2-a]pyridin-3-yl)(4-(4-(trifluoromethoxy)benzyloxy)piperidin-1-yl)methanone] gave an IC50 at Human 5-lipoxygenase below 1 µM.

As to `CCc1nc2ccc(Cl)cn2c1CNc1ccc(Oc2ccc(OC(F)(F)F)cc2)cc1` [compound 394, N-((6-chloro-2-ethylimidazo[1,2-a]pyridin-3-yl)methyl)-4-(4-(trifluoromethoxy)-phenoxy)aniline], on Human 5-lipoxygenase, the IC50 is below 1 µM.

Consider `CCc1nc2ccc(Cl)cn2c1CN1CCN(c2ccc(F)cc2)CC1` [compound 397, 6-chloro-2-ethyl-3-((4-(4-fluorophenyl)piperazin-1-yl)methyl)imidazo[1,2-a]pyridine], for which the half-inhibitory concentration (IC50) against Human 5-lipoxygenase is above 20 µM.

Molecule `CCc1nc2cnccn2c1CNc1ccc(N2CCN(c3ccc(F)cc3)CC2)cc1` [compound 398, N-((2-Ethylimidazo[1,2-a]pyrazin-3-yl)methyl)-4-(4-(4-fluorophenyl)piperazin-1-yl)aniline] gave an IC50 at Human 5-lipoxygenase below 1 µM.

The values above are taken from patent US9029389B2 (Institut Pasteur Korea, priority 2011, dated 2015).
